In patent US11648254B2 (Kumquat Biosciences Inc., priority 2021, dated 2023):
Where two headings read alike, the source gives them in different places.

Columns and labels:
[1] = target: SOS1 (Homo sapiens (Human), UniProt Q07889); test: Ras-SOS interaction assay (HTRF); type: biochemical
[2] = tested on: MIA PaCa-2 cells (K-Ras G12C); test: Ras-SOS cellular growth inhibition assay (CellTiter-Glo, 3D); type: cell-based; conditions: Homo sapiens
In short: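 MIA PaCa-2 cells grown in ultra-low-attachment plates (3D) in DMEM/Ham's F12 with 10% FCS and 2.5% horse serum, treated the day after seeding with a 9-point 3-fold compound series for about 5 days. Viability by CellTiter-Glo luminescence; IC50 from four-parameter fit.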

[3] = tested on: NCI-H1975 cells (EGFR T790M L858R); test: EGFR-SOS cellular inhibition assay (CellTiter-Glo, 3D); type: cell-based; conditions: Homo sapiens
[4] = Metabolic (microsomal) stability assay; type: in vitro ADME; conditions: mouse liver microsomes, T1/2; read-out: DMPK-invitro-metabolic Stability (Mouse T1/2)
Excerpt: Example 12: Metabolic (Microsomal) Stability Assay

[5] = In vitro plasma protein binding (PPB); type: in vitro ADME; conditions: percentage of free/unbound compound
[6] = K-RasG13D utilized, read-out: IC50 inhibition of SOS
[7] = MIA PaCa-2, 120 h, MIA PaCa-2, 3D proliferation, about 5 days, read-out: Bio-Cell-Prolif-3D (MiaPaca2 IC50)
[8] = MIA PaCa-2, MIA PaCa-2, read-out: IC50 in inhibiting MIA PaCa-2 cell growth
[9] = 120 h, NCI-H1975, 3D proliferation, about 5 days, read-out: Bio-Cell-Prolif-3D (H1975 IC50)
[10] = NCI-H1975, EGFR T790M L858R, read-out: IC50 in inhibiting growth of NCI-H1975 cell line
[11] = K-RasG13D, read-out: IC50 value against SOS1

SOS1, sequence (Q07889 564-1049): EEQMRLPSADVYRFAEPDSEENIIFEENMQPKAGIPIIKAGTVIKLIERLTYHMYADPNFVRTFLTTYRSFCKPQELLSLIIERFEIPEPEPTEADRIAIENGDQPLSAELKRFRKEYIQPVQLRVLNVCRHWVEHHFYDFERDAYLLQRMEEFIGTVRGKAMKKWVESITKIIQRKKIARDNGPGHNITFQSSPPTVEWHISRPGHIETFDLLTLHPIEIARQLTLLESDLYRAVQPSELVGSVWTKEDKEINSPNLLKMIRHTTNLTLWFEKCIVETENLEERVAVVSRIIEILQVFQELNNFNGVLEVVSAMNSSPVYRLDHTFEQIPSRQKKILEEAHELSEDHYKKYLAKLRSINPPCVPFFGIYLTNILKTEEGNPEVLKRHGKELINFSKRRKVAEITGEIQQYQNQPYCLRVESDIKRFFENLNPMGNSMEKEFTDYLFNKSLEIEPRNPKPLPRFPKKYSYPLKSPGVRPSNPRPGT

IC50 [1, 6] [nM]	IC50 [2, 7] [nM]	IC50 [2, 8] [nM]	IC50 [3, 9] [nM]	IC50 [3, 10] [nM]	half-life [4] [h]	IC50 [1, 11] [nM]	DMPK-invitro-PPB (Mouse Unbound) [%] [5] [%]	Structure (SMILES)
< 100	≤ 1000	< 500	≤ 1000	< 500	> 3.33			Cc1nc(N[C@H](C)c2cccc(C(F)(F)C(C)(C)O)c2F)c2cc(C3(C#N)CC3)c(Cl)nc2n1 [Compound 170, (R)-1-(7-chloro-4-((1-(3-(1,1-difluoro-2-hydroxy-2-methylpropyl)-2-fluorophenyl)ethyl)amino)-2-methylpyrido[2,3-d]pyrimidin-6-yl)cyclopropane-1-carbonitrile]
< 100	≤ 1000	< 500	≤ 1000	< 500	> 3.33	< 50		Cc1nc(N[C@H](C)c2cccc(C(F)(F)C(C)(C)O)c2)c2cc(C3(C#N)CC3)c(Cl)nc2n1 [Compound 193, (R)-1-(7-chloro-4-((1-(3-(1,1-difluoro-2-hydroxy-2-methylpropyl)phenyl)ethyl)amino)-2-methylpyrido[2,3-d]pyrimidin-6-yl)cyclopropane-1-carbonitrile]
< 100	≤ 1000	< 500	≤ 1000		0.352	< 50		Cc1nc(N[C@H](C)c2cccc(C(F)(F)CO)c2F)c2cc(C3(C#N)CC3)c(Cl)nc2n1 [Compound 195, (R)-1-(7-chloro-4-((1-(3-(1,1-difluoro-2-hydroxyethyl)-2-fluorophenyl)ethyl)amino)-2-methylpyrido[2,3-d]pyrimidin-6-yl)cyclopropane-1-carbonitrile]
< 100	≤ 1000		≤ 1000	< 500	2.57	< 50		C[C@@H](Nc1ncnc2nc(Cl)c(C3(C#N)CC3)cc12)c1cccc(C(F)F)c1F [Compound 200, (R)-1-(7-chloro-4-((1-(3-(difluoromethyl)-2-fluorophenyl)ethyl)amino)pyrido[2,3-d]pyrimidin-6-yl)cyclopropane-1-carbonitrile]
< 100	≤ 1000	< 500	≤ 1000	< 500	> 3.33	< 50		C[C@@H](Nc1ncnc2nc(Cl)c(C3(C#N)CC3)cc12)c1cccc(C(F)(F)[C@@H](C)O)c1 [Compound 214, 1-(7-chloro-4-(((R)-1-(3-((R)-1,1-difluoro-2-hydroxypropyl)phenyl)ethyl)amino)pyrido[2,3-d]pyrimidin-6-yl) cyclopropane-1-carbonitrile]
< 100	≤ 1000	< 500	≤ 1000	< 500	1.65	< 50		Cc1nc(N[C@H](C)c2cccc(C(F)(F)[C@@H](C)O)c2)c2cc(C3(C#N)CC3)c(Cl)nc2n1 [Compound 219, 1-(7-chloro-4-(((R)-1-(3-((R)-1,1-difluoro-2-hydroxypropyl)phenyl)ethyl)amino)-2-methylpyrido[2,3-d]pyrimidin-6-yl)cyclopropane-1-carbonitrile]
< 100	≤ 1000	< 500	≤ 1000	< 500	1.67	< 50		Cc1nc(N[C@H](C)c2cccc(C(F)(F)[C@H](C)O)c2)c2cc(C3(C#N)CC3)c(Cl)nc2n1 [Compound 220, 1-(7-chloro-4-(((R)-1-(3-((S)-1,1-difluoro-2-hydroxypropyl)phenyl)ethyl)amino)-2-methylpyrido[2,3-d]pyrimidin-6-yl)cyclopropane-1-carbonitrile]
< 100	≤ 1000		≤ 1000	< 500	0.703	< 50		Cc1nc(N[C@H](C)c2cccc(C(F)F)c2F)c2cc(C3(C#N)CC3)c(OC3CN(C)C3)nc2n1 [Compound 234, (R)-1-(4-((1-(3-(difluoromethyl)-2-fluorophenyl)ethyl)amino)-2-methyl-7-((1-methylazetidin-3-yl)oxy)pyrido[2,3-d]pyrimidin-6-yl)cyclopropane-1-carbonitrile]
< 100	≤ 1000	< 500	≤ 1000	< 500		< 50	0.74	CCN1CCC(c2cc3c(N[C@H](C)c4cccc(C(F)(F)F)c4C)ncnc3nc2OC)CC1 [Compound 353, (R)-6-(1-ethylpiperidin-4-yl)-7-methoxy-N-(1-(2-methyl-3-(trifluoromethyl)phenyl)ethyl)pyrido [2,3-d]pyrimidin-4-amine]
	≤ 1000	< 500	≤ 1000			< 50	2.93	COc1nc2ncnc(N[C@H](C)c3cccc(C(F)(F)F)c3C)c2cc1C1CCS(=O)(=O)CC1 [Compound 373, (R)-4-(7-methoxy-4-((1-(2-methyl-3-(trifluoromethyl)phenyl)ethyl)amino)pyrido[2,3-d]pyrimidin-6-yl)tetrahydro-2H-thiopyran 1,1-dioxide]
	≤ 1000	< 500	≤ 1000	< 500		< 50	0.45	COc1nc2ncnc(N[C@H](C)c3cccc(C(F)(F)F)c3C)c2cc1C1CCN(C2CCOCC2)CC1 [Compound 374, (R)-7-methoxy-N-(1-(2-methyl-3-(trifluoromethyl)phenyl)ethyl)-6-(1-(tetrahydro-2H-pyran-4-yl)piperidin-4-yl)pyrido[2,3-d]pyrimidin-4-amine]
< 100	≤ 1000	< 500	≤ 1000	< 500		< 50	2.67	COc1nc2ncnc(N[C@H](C)c3cccc(C(F)(F)F)c3F)c2cc1C1CCS(=O)(=O)CC1 [Compound 375, (R)-4-(4-((1-(2-fluoro-3-(trifluoromethyl)phenyl)ethyl)amino)-7-methoxypyrido[2,3-d]pyrimidin-6-yl)tetrahydro-2H-thiopyran 1,1-dioxide]
< 100	≤ 1000	< 500	≤ 1000	< 500		< 50	0.91	COc1nc2ncnc(N[C@H](C)c3cccc(C(F)(F)F)c3C)c2cc1N1CCN(C(C)C)CC1 [Compound 376, (R)-6-(4-isopropylpiperazin-1-yl)-7-methoxy-N-(1-(2-methyl-3-(trifluoromethyl)phenyl)ethyl)pyrido [2,3-d]pyrimidin-4-anune]
< 100	≤ 1000	< 500	≤ 1000	< 500		< 50	0.14	COc1nc2nc(C)nc(N[C@H](C)c3cccc(C(F)(F)F)c3C)c2cc1N1CCN(C2CCOCC2)CC1 [Compound 378, (R)-7-methoxy-2-methyl-N-(1-(2-methyl-3-(trifluoromethyl)phenyl)ethyl)-6-(4-(tetrahydro-2H-pyran-4-yl)piperazin-1-yl)pyrido[2,3-d]pyrimidin-4-amine]
